Measured values as given in patent publication US10287311B2, “Modified fluorinated nucleoside analogues” (priority 2003, dated 2019).
Where two headings read alike, the source gives them in different places.

Tests used:
West Nile virus = experiment: Antiviral activity, West Nile virus in Vero cells; type: cell-based; conditions: for EC50: West Nile virus, West Nile, Vero
Dengue Type 2 = experiment: Antiviral activity, Dengue Type 2 in Vero cells; type: cell-based, Dengue virus; conditions: for EC50: Dengue Type 2, Vero
Yellow Fever virus = type: cell-based
Influenza B = experiment: microbe, parasite or virus in culture; type: cell-based; conditions: MDCK
Rhinovirus Type 2 = experiment: Antiviral activity, Rhinovirus Type 2 in KB cells; type: cell-based; conditions: for EC50: Enterovirus, Rhinovirus Type 2, KB
VEE = experiment: organism not typed; type: cell-based; conditions: Vero
SARSCoV = experiment: organism not typed; type: cell-based; conditions: Vero
BVDV = experiment: (BVDV) yield reduction assay; type: cell-based, bovine viral diarrhea virus; conditions: for EC90: Bovine viral diarrhea virus isolates and strains
Description: Madin-Darby Bovine Kidney (MDBK) cells were grown in Dulbecco's modified eagle medium supplemented with 10% horse serum and 100 μg/ml penicillin-streptomycin. Cells were seeded in a 96-well plate at 5×10^3 cells/well and incubated for 72h at 37° C. in a humidified 5% CO2 atmosphere. Cells were infected with either cytopathic (NADL strain) or noncytopathic (SD-1 strain) BVDV at a virus dilution of 10-2 and incubated for 45 min. Cell monolayers were washed three times with medium. Fresh medium-containing test compounds in dose response concentrations or ribavirin, as a positive control, were added to cultures and medium containing no drug was added to the no-drug controls. After 72h incubation, supernatant was collected and viral RNA was extracted using the QIAmp Viral RNA Mini Kit (Qiagen, CA). Viral load was determined by Q-RT-PCR using primers specific for either NADL or SD-1 (1).

RSV = experiment: Antiviral activity, RSV; type: cell-based; conditions: human respiratory syncytial virus
HIV = experiment: microbe, parasite or virus in culture; type: cell-based
HBV = experiment: Antiviral activity, HBV; type: cell-based
Coronavirus 229E = experiment: Antiviral activity, Coronavirus 229E; type: cell-based
[1] = Cytotoxicity assay (MTS), all cell lines tested; type: cell-based; conditions: human, bovine, African green monkey, Clone A, Huh7, HepG2, MDBK, PBM, CEM, Vero and MRC-5 cells; summary in text over all cell lines
Description: (§1) 50 μl of 2× drug dilutions were added per well in a 96 well plate. Final concentrations of drug ranged from 1 to 100 μM. A “no drug” (media only) control was used to determine the minimum absorbance values and a “cells+media only” control was used for maximum absorbance value. A solvent control was also used. Cells were then added (PBM: 5×10^4 cells/well; CEM: 2.5×10^3 cells/well; Vero, HepG2, Huh-7, and Clone A: 5×10^3 cells/well) and incubated at 37° C. in a humidified 5% CO2 atmosphere for 3-5 days (PBM: 5 days; CEM: 3 days, all others: 4 days). After incubation, 20 μl of MTS dye was added from Cell Titer Aqueous One Solution Cell Proliferation Assay to each well and the plate was re-incubated for 2-4 hours. The absorbance (490 nm) was then read on an ELISA plate reader using the media only/no cell wells as blanks. Percent inhibition was found and used to calculate the CC50.
In contrast is the relative toxicity of 2′-C-methyladenosine.

[2] = Cytotoxicity assay (MTS), CloneA; type: cell-based; conditions: human, Clone A cells
Description: as §1

[3] = Cytotoxicity assay (MTS), Huh7; type: cell-based; conditions: human, Huh7 cells
Description: as §1

[4] = Cytotoxicity assay (MTS), HepG2; type: cell-based; conditions: human, HepG2 cells
Description: as §1

[5] = Cytotoxicity assay (MTS), MDBK; type: cell-based; conditions: bovine, MDBK cells
[6] = Cytotoxicity assay (MTS), PBM; type: cell-based; conditions: PBM cells
Description: as §1

[7] = Cytotoxicity assay (MTS), CEM; type: cell-based; conditions: human, CEM cells
Description: as §1

[8] = Cytotoxicity assay (MTS), Vero; type: cell-based; conditions: African green monkey, Vero cells
Description: as §1

[9] = Cytotoxicity assay (MTS), MRC-5; type: cell-based; conditions: human, MRC-5 cells; MRC-5, MTS assay
HepG2 cells = experiment: Mitochondria toxicity assay; type: cell-based; conditions: 7 days
Description: Fifty microliters of 2× drug dilutions were added per well in a 96 well plate. […] Ribosomal DNA levels were used to determine specific toxicity to mitochondria or generally cytotoxicity. HepG2 cells (5,000 cells/well at 50 μl) were added to the plate. The plate was incubated at 37° C. in a humidified 5% CO2 atmosphere for 7 days. After incubation, the supernatant was removed and stored for lactic acid quantification, and total DNA was extracted from cells as described in the RNeasy 96 handbook (February 1999), pages 22-23. No DNA digestions were performed, therefore total RNA and DNA were extracted. The extracted DNA was amplified and the change in mitochondrial DNA and ribosomal DNA for each sample was determined. The fold difference in mitochondrial DNA normalized for ribosomal DNA relative to control was calculated. Lactic acid quantification was performed by the D-Lactic Acid/L-Lactic acid test kit (Boehringer Mannheim/R-Biopharm/Roche). The total amount of lactic acid produced for each sample was found as well as the fold change in lactic acid production (% of lactic acid/% of rDNA) as described in the manufacturers instructions.

[10] = Pharmacokinetics in Rhesus monkeys; type: in vivo; conditions: single oral dose 33.3 mg/kg, Mean ± SD, preliminary
Description: FIG. 3 depicts the pharmacokinetics of β-D-(2′R)-2′-deoxy-2′-fluoro-2′-C-methylcytidine in Rhesus monkeys given a single dose (33.3 mg/kg) oral or intravenous dose of β-D-(2′R)-2′-deoxy-2′-fluoro-2′-C-methylcytidine.

[11] = tested on: Human bone marrow cells, BFU-E; experiment: Bone marrow toxicity assay, BFU-E; type: cell-based; conditions: Bone marrow cell
Description: (§2) The culture assays for CFU-GM and BFU-E are performed using a bilayer soft agar or methylcellulose method. Drugs are diluted in tissue culture medium and filtered. After 14 to 18 days at 37° C. in a humidified atmosphere of 5% CO2 in air, colonies of greater than 50 cells are counted using an inverted microscope. The results are presented as the percent inhibition of colony formation in the presence of drug compared to solvent control cultures.

[12] = tested on: Human bone marrow cells, CFU-GM; experiment: Bone marrow toxicity assay, CFU-GM; type: cell-based; conditions: CFU-GM
Description: as §2

in vitro [13] = conditions: African green monkey
in vitro [14] = conditions: human
replicon HCV RNA = experiment: HCV replicon assay (clone not specified)
[15] = Cytotoxicity (CPE, Neutral Red) in KB cells of the antiviral tests; conditions: human
[16] = Cytotoxicity (CPE, Neutral Red) in MDCK cells of the antiviral tests; conditions: dog, MDCK cells
MDCK cells = experiment: as above; conditions: MDCK, Influenza B test
[17] = molecular target: HCV 1b NS5B polymerase, Wild-Type NS5B (Hepatitis C virus genotype 1b, UniProt Q9WMX2)
[18] = Neutral Red, read-out: EC50, NR

Chain of HCV 1b NS5B polymerase, Wild-Type NS5B (Q9WMX2 2420-3010): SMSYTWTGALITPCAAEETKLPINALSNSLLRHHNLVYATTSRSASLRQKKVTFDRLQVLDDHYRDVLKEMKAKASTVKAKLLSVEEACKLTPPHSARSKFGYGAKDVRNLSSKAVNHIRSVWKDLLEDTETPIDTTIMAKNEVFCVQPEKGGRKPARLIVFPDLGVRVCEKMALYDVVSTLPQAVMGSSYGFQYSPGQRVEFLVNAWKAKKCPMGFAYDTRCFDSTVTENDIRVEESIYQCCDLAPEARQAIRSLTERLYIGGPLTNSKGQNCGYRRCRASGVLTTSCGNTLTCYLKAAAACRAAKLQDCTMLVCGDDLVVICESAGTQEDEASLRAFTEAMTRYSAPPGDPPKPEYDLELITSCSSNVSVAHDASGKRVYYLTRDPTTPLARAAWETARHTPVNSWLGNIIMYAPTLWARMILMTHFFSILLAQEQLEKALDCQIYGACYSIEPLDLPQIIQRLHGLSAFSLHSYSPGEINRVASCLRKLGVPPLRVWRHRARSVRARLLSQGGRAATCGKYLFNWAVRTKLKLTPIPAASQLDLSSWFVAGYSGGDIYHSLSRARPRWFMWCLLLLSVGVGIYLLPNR

Question: For C[C@@]1(F)[C@H](O)[C@@H](CO)O[C@H]1n1ccc(N)nc1=O, which “activity against West Nile virus (in words)” value (West Nile virus) is on record?
Answer: shows activity

Question: What about the EC50 (West Nile virus; NR = Neutral Red, read-out: EC50, NR) of the same compound?
Answer: 12 µM

Question: What about the EC50 (West Nile virus; read-out: EC50, CPE) of the same compound?
Answer: 32 µM

Question: And the “activity against Dengue virus (in words)” value (Dengue Type 2)?
Answer: shows activity

Question: What about the EC50 (Dengue Type 2; read-out: EC50, CPE) of the same compound?
Answer: 55 µM

Question: What about the EC50 (Dengue Type 2; Dengue virus, Vero, Neutral Red, read-out: EC50, NR) of the same compound?
Answer: > 100 µM

Question: And the EC50 (Dengue Type 2; Dengue virus, Vero, read-out: EC50, CPE)?
Answer: 32 µM

Question: What about the “activity against Yellow Fever virus (in words)” value (Yellow Fever virus) of the same compound?
Answer: shows activity

Question: What about the EC50 (Influenza B; [18]) of the same compound?
Answer: > 100 µM

Question: What about the EC50 (Influenza B; read-out: EC50, CPE) of the same compound?
Answer: > 100 µM

Question: What about the “activity against Rhinovirus (in words)” value (Rhinovirus Type 2) of the same compound?
Answer: shows activity

Question: And the EC50 (Rhinovirus Type 2; [18])?
Answer: 20 µM

Question: What about the EC50 (Rhinovirus Type 2; read-out: EC50, CPE) of the same compound?
Answer: 25 µM

Question: What about the EC50 (VEE; read-out: EC50, CPE) of the same compound?
Answer: > 100 µM

Question: And the EC50 (VEE; read-out: EC50, NR)?
Answer: > 100 µM

Question: And the EC50 (SARSCoV; read-out: EC50, CPE)?
Answer: > 100 µM

Question: And the EC50 (SARSCoV; read-out: EC50, NR)?
Answer: > 100 µM

Question: What about the “activity on HCV surrogate model BVDV (in words)” value (BVDV) of the same compound?
Answer: lack of activity

Question: And the EC90 (BVDV; BVDVcp)?
Answer: > 100 µM

Question: And the EC90 (BVDV; BVDVncp)?
Answer: > 22 µM

Question: What about the EC90 (RSV) of the same compound?
Answer: > 100 µM

Question: What about the “activity on HIV (in words)” value (HIV) of the same compound?
Answer: lack of activity

Question: What about the EC90 (HIV; Human immunodeficiency virus 1, HIV) of the same compound?
Answer: > 100 µM

Question: And the “activity on HBV (in words)” value (HBV)?
Answer: lack of activity

Question: And the EC90 (HBV; Hepatitis B virus, HBV)?
Answer: > 10 µM

Question: And the “activity on Corona virus (in words)” value (Coronavirus 229E)?
Answer: lack of activity

Question: What about the EC90 (Coronavirus 229E; Human coronavirus 229E) of the same compound?
Answer: > 100 µM

Question: What about the CC50 [1] of the same compound?
Answer: 75 to 100 µM

Question: And the CC50 at 4 days [2]?
Answer: > 100 µM

Question: And the CC50 at 4 days [3]?
Answer: > 100 µM

Question: And the CC50 at 4 days [4]?
Answer: 75 µM

Question: What about the CC50 at 4 days [5] of the same compound?
Answer: > 100 µM

Question: And the CC50 at 5 days [6]?
Answer: > 100 µM

Question: And the CC50 at 3 days [7]?
Answer: > 100 µM

Question: What about the CC50 at 4 days [8] of the same compound?
Answer: > 100 µM

Question: What about the CC50 at 4 days [9] of the same compound?
Answer: > 100 µM

Question: What about the “Lactic Acid Increase” value (HepG2 cells) of the same compound?
Answer: No effect ≥ 33 μM

Question: What about the IC50 (HepG2 cells; Homo sapiens, 168 h, read-out: mtDNA Synthesis (IC50)) of the same compound?
Answer: > 25 µM

Question: What about the AUC(0-t) ([10]; rhesus monkey, in vivo) of the same compound?
Answer: 44.2 ± 22.2 µM·h

Question: And the half-life ([10]; rhesus monkey, in vivo, read-out: T ½ (converted))?
Answer: 3.9 ± 0.1 h

Question: What about the Bioavailability [10] of the same compound?
Answer: 21 ± 11 F %

Question: What about the Cmax [10] of the same compound?
Answer: 9.6 ± 2.7 µM

Question: And the Tmax [10]?
Answer: 2 ± 1 h

Question: What about the IC50 [11] of the same compound?
Answer: 98.2 µM

Question: And the IC50 [12]?
Answer: 93.9 µM

Question: And the CC50 (Vero cells; African green monkey)?
Answer: > 100 µM

Question: And the CC50 (Vero cells; read-out: CC50, CPE, Vero, SARSCoV test)?
Answer: > 100 µM

Question: What about the CC50 (Vero cells; read-out: CC50, NR, Vero, SARSCoV test, Neutral Red) of the same compound?
Answer: > 100 µM

Question: And the CC50 (Vero cells; read-out: CC50, NR, Vero, VEE test, Neutral Red)?
Answer: > 100 µM

Question: What about the “deaths during the 30-day study” value (female Swiss mice; female Swiss mice, intraperitoneal, days 0 to 5, 0, 3.3, 10, 33, 100 mg/kg) of the same compound?
Answer: no mice died

Question: What about the “toxicity observed in the mice” value (female Swiss mice; mouse, in vivo) of the same compound?
Answer: No significant toxicity

Question: And the CC50 (in vitro [13])?
Answer: > 100 µM

Question: And the CC50 (in vitro [14])?
Answer: > 100 µM

Question: And the EC90 (replicon HCV RNA; Hepatitis C virus, 96 h, read-out: EC90 (1-log reduction of replicon RNA), 4-days incubation / 96 hours, FIG. 1A (converted))?
Answer: ~2.5 µM

Question: What about the EC90 (replicon HCV RNA; Hepatitis C virus, read-out: EC90 values, range for the replicon clones, range over replicon clones of Table 1) of the same compound?
Answer: 1.6 to 4.6 µM

Question: And the EC90 (replicon HCV RNA; read-out: EC90 (1-log reduction of replicon RNA) (converted), 4-days incubation / 96 hours, FIG. 1A)?
Answer: 5 µM

Question: And the CC50 [15]?
Answer: > 100 µM

Question: And the CC50 [16]?
Answer: > 100 µM

Question: What about the CC50 (MDCK cells; read-out: CC50, CPE) of the same compound?
Answer: > 100 µM

Question: And the CC50 (MDCK cells; read-out: CC50, NR, Neutral Red)?
Answer: > 100 µM

Question: Which results are given for C[C@@]1(F)[C@H](O)[C@@H](COP(=O)(O)OP(=O)(O)OP(=O)(O)O)O[C@H]1n1ccc(N)nc1=O?
Answer: IC50 ([17]; IC50, Wild-Type NS5B, batch 1): 1.7 ± 0.4 µM; IC50 ([17]; IC50, Wild-Type NS5B, batch 2 and 3): 7.7 ± 1.2 µM; IC50 ([17]; inhibitory concentration 50%, range, NS5B polymerase assay): 1.7 to 7.7 µM

Question: What does the source list for C[C@@]1(O)[C@H](O)[C@@H](CO)O[C@H]1n1cnc2c(N)ncnc21 [2′-C-methyladenosine]?
Answer: activity on HCV surrogate model BVDV (in words) (BVDV): greater activity; EC90 (BVDV; BVDVcp): 1.5 µM; EC90 (BVDV; BVDVncp): 1.2 µM; EC90 (RSV): > 100 µM; CC50 at 4 days [2]: 37 µM; CC50 at 4 days [3]: 30 µM; CC50 at 4 days [4]: 58 µM
